Counter-ions that a name gives are not always drawn.
How the values were obtained:
human DPP-IV = target: T1, human DPP-IV (Homo sapiens, UniProt P27487); experiment: DPP-IV activity assay (fluorogenic / colorimetric); format: biochemical; settings: natural human DPP-IV from plasma pool or recombinant human DPP-IV; 37° C., pH 7.8
T1 construct: made in house; host or cells: Pichia pastoris (secreted, purified from the culture medium)
Experimental: Activity of DPP-IV inhibitors are tested with natural human DPP-IV derived from a human plasma pool or with recombinant human DPP-IV. Human citrate plasma from different donors is pooled, filtered through a 0.2 micron membrane under sterile conditions and aliquots of 1 mL are shock frozen and stored at −120° C. until used. In the colorimetric DPP-IV assay 5 to 10 μL human plasma and in the fluorometric assay 1.0 μL of human plasma in a total assay volume of 100 μL is used as an enzyme source. The cDNA of the human DPP-IV sequence of amino acid 31- to 766, restricted for the N-terminus and the transmembrane domain, is cloned into pichia pastoris. […]
In the calorimetric assay H-Ala-Pro-pNA.HCl (Bachem L-1115) is used as a substrate. […] Fluorescence is detected in a Perkin Elmer Luminescence Spectrometer LS 50B at an excitation wavelength of 400 nm and an emission wavelength of 505 nm continuously every 15 seconds for 10 to 30 minutes. Initial rate constants are calculated by best fit linear regression. The absorption of pNA liberated from the calorimetric substrate is detected in a Packard SpectraCount at […] continuously every 2 minutes for 30 to 120 minutes. Initial rate constants are calculated by best fit linear regression. […]
IC50 determinations of test compounds are calculated by non-linear best fit regression of the DPP-IV inhibition of at least 5 different compound concentrations. […]

[1] = Hygroscopicity observation (water uptake and release of the crystal form); format: physicochemical; settings: solid crystal form; XRPD and IR vary with humidity of the sample
Description: It has been observed that the polymorph B is hygroscopic and that the X-ray powder diffraction pattern and the IR-spectrum of polymorph B can vary, depending on the humidity of the analyzed sample. Water uptake and release, respectively, result in systematic shifts of some peak positions in the X-ray powder diffraction pattern. The crystal form B is characterized by a set of peaks, as described above, that are not susceptible to peak shifts in a range larger than 0.2 degrees in 2-theta. Samples of polymorph B, which have been dried, e.g. by elevated temperature or in a dry atmosphere, show the same X-ray powder diffraction pattern. In the IR spectrum of polymorph B, variations of humidity of the sample are mainly observed in following regions: 3700-3300, 1250-1150, 1045-1000 970-955, 900-850 cm^−1. However, changes of humidity can also have an influence on the position of the peaks outside these ranges.

T1 sequence (P27487 31-766): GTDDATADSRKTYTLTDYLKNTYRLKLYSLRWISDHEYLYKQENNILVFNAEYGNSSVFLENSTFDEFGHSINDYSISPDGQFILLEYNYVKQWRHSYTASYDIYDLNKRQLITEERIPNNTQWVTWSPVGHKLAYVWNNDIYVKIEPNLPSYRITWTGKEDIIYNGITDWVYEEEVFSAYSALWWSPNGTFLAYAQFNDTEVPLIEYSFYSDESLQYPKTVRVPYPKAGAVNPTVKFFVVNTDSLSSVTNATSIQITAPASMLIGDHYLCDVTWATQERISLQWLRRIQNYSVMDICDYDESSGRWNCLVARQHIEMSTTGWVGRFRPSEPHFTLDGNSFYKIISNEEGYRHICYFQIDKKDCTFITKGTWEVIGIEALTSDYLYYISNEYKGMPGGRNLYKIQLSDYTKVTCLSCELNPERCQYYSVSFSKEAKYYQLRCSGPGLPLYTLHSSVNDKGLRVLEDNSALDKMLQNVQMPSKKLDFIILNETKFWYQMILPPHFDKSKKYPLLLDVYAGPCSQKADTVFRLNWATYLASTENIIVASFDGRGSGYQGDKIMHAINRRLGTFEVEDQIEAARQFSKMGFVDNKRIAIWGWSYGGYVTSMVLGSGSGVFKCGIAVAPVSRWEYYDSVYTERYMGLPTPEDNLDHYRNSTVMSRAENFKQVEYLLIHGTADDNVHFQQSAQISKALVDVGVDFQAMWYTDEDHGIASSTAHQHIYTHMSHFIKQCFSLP

IC50 (human DPP-IV)	Ki (human DPP-IV)	hygroscopicity [1]	Compound
75 nM	80 nM		Cc1oc(-c2ccccc2)nc1CCNCC(=O)N1CCC[C@H]1C#N [(S)-1-{[2-(5-Methyl-2-phenyl-oxazol-4-yl)-ethylamino]-acetyl}-pyrrolidine-2-carbonitrile mesylate]
		hygroscopic	CS(=O)(=O)O.Cc1oc(-c2ccccc2)nc1CCNCC(=O)N1CCC[C@H]1C#N [polymorph B, (S)-1-{[2-(5-Methyl-2-phenyl-oxazol-4-yl)-ethylamino]-acetyl}-pyrrolidine-2-carbonitrile mesylate]
